Test results reported in patent US5260271A, “Nisin compositions for use as enhanced broad range bactericides” (Applied Microbiology, Inc., priority 1992, dated 1993).
Where no end group is shown, it is not given here.

Assays:
[1] = test system: K. pneumoniae; experiment: Bactericidal activity, percent bacterial survival of K. pneumoniae suspension; assay type: cell-based, Klebsiella pneumoniae; settings: 20 mM Tris pH 8.0
Procedure: (§1) All tests in the following examples were performed at 37° C. The efficacy of the enhanced broad range bactericides was determined by assaying bactericidal activity as measured by the percent bacterial survival after treatment with the bactericide. Generally, after incubation of a 10^7 cell per ml suspension of target species with the novel bactericide for specified lengths of time, bacteria were collected by centrifugation for 2 minutes. […] Surviving bacteria were determined by scoring colony forming units (CFU) after incubation for 24-48 hours at 37° C.
The effect was measured as a function of percentage bacterial survival after 2 hours.

[2] = test system: Staphylococcus aureus; experiment: Bactericidal activity towards Staphylococcus aureus, percent survival; assay type: cell-based; settings: S. aureus
Procedure: (§2) All tests in the following examples were performed at 37° C. The efficacy of the enhanced broad range bactericides was determined by assaying bactericidal activity as measured by the percent bacterial survival after treatment with the bactericide. Generally, after incubation of a 10^7 cell per ml suspension of target species with the novel bactericide for specified lengths of time, bacteria were collected by centrifugation for 2 minutes. […] Surviving bacteria were determined by scoring colony forming units (CFU) after incubation for 24-48 hours at 37° C. An effective bactericide according to this invention is one which allows less than 0.1% of the initial viable count of the bacteria to survive.
Incubations were performed in 50 mM sodium acetate buffer, pH 5.0 or 20 m
TrisHCl buffer, pH 8.0 at 37° C.

[3] = test system: Listeria monocytogenes; experiment: Bactericidal activity towards Listeria monocytogenes in Tris buffer; assay type: cell-based; settings: L. monocytogenes
Procedure: as §2
(§3) Incubations were performed in 20 mM TrisHCl, pH 8.0 at 37° C.

[4] = test system: S. typhimurium on chicken muscle; experiment: Bactericidal activity towards S. typhimurium on chicken muscle (unadhered cells); assay type: cell-based, Salmonella typhimurium
Procedure: Incubations were performed in either 50 mM sodium acetate, pH 5.0, or 20 mM Tris, pH 8.0 at 37° C.
Cubes of chicken muscle were cleansed with sodium hypochlorite and povidone iodine prior to use. To inoculate the tissue, the cubes of chicken muscle were dipped into a 10^8 cells/ml suspension of S. typhimurium in 20 mM Tris HCl, pH 8.0. Excess moisture was removed from dipped cubes by tapping. The chicken samples were placed into sufficient buffer containing the nisin composition to cover the tissue and incubated for 2 hours at 37° C. after which the tissue was removed to sufficient Phage buffer to cover the tissue. The bacteria remaining in the test solution were collected by centrifugation, washed with Phage buffer, and combined with bacteria washed from the tissue by Phage buffer. The combined samples (termed "unadhered" cells) were serially diluted and 100 μl aliquots were plated for determination of surviving bacteria.
(§4) Cubes of chicken muscle were cleansed with sodium hypochlorite and povidone iodine prior to use. To inoculate the tissue, the cubes of chicken muscle were dipped into a 10^8 cells/ml suspension of S. typhimurium in 20 mM Tris HCl, pH 8.0. Excess moisture was removed from dipped cubes by tapping. The tissue was placed into sufficient buffer containing the nisin compositions to cover the tissue, and incubated for 2 hours at 37° C. after which the tissue was removed to sufficient Phage buffer to cover the tissue. The bacteria remaining in the test solution were collected by centrifugation, washed with Phage buffer, and combined with bacteria washed from the tissue by Phage buffer. The combined samples (termed "unadhered" cells) were serially diluted and 100 μl aliquots were plated for determination of surviving bacteria.
as §4, with “cleaned” for “cleansed”, “50” for “20”, “sodium acetate buffer,” for “Tris HCl,”, “5.0.” for “8.0.”, “containing” for “containing the”

[5] = test system: Streptococcus mutans; experiment: Bactericidal activity and kinetics towards Streptococcus mutans in Tris buffer; assay type: cell-based; settings: S. mutans; for % Survival: Nisin 0 with 1.0 mM EDTA, pH 7.3
Procedure: (§6) All tests in the following examples were performed at 37° C. The efficacy of the enhanced broad range bactericides was determined by assaying bactericidal activity as measured by the percent bacterial survival after treatment with the bactericide. Generally, after incubation of a 10^7 cell per ml suspension of target species with the novel bactericide for specified lengths of time, bacteria were collected by centrifugation for 2 minutes. The bacterial pellet was washed free of the bactericide with a rescue buffer, termed herein Phage buffer (50mM Tris-HCl buffer pH 7.8, 1 mM MgSO4, 4 mM CaCl2, 0.1 M Nacl, and 0.1% gelatin), resuspended and serially diluted into Phage buffer, and 100 μl of the suspended bacteria were spread on nutrient agar plates. Surviving bacteria were determined by scoring colony forming units (CFU) after incubation for 24-48 hours at 37° C.
The suspensions were incubated for various times ranging from 0.5 to 60 minutes with the bactericides.
Incubations were performed in 20 mM TrisHCl, pH 7.3 at 37° C.

[6] = test system: E. coli; experiment: Bactericidal activity, percent bacterial survival of E. coli suspension; assay type: cell-based, Escherichia coli; settings: for Percentage E. coli Survival at 2 hours: Triton X-100 0%, 20 mM Tris pH 8.0
Procedure: as §1
The effects of the bactericide were measured as a function of percentage bacteria survival after 2 hours.
Incubations were performed in 20 mM Tris, […] at 37° C.

[7] = test system: S. typhimurium; experiment: Bactericidal activity, percent bacterial survival of S. typhimurium suspension; assay type: cell-based, Salmonella typhimurium
Procedure: as §1
The control (Test #1) is identical to the control of Example 1 (Table 1).

[8] = test system: Coryneform bacteria; experiment: Bactericidal activity towards Coryneform bacteria; assay type: cell-based
Procedure: as §2, §3

[9] = test system: Listeria monocytogenes; experiment: Bactericidal activity towards Listeria monocytogenes in milk; assay type: cell-based; settings: L. monocytogenes in milk at 37° C.; Nisin 100 μg/ml, Monooleate 0%
Procedure: as §2
An example of where the application of nisin is limited by its available activity is illustrated by the data in Table 15B.
(§5) Incubations were in milk at 37° C.

[10] = test system: Streptococcus mutans; experiment: Rapid bactericidal activity towards Streptococcus mutans in the presence of divalent cation, 10% Fetal Calf Serum; assay type: cell-based; settings: S. mutans, Nisin 3, no EDTA, 0 mM
Procedure: as §6
Incubations performed in 10% Fetal Calf Serum at 37° C.

[11] = test system: Streptococcus agalactiae; experiment: Bactericidal activity towards Streptococcus agalactiae in milk; assay type: cell-based; settings: for % survival at 2h: S. agalactiae in milk at 37° C., Monolaurin 0%
Procedure: as §2
However, the combination of the two agents, 0.1% monolaurin and nisin 0.2 μg/ml, is extremely potent towards S. agalactiae. […] Thus, when the application of nisin is limited by its available activity, a bactericide comprising nisin with a surfactant can be expected to be more useful.
as §5

[12] = pH 8.0, Nisin 3.0 μg/ml, EDTA 0 mM

## O=C(O)CN(CCN(CC(=O)O)CC(=O)O)CC(=O)O [EDTA]
[1]; Nisin 0, EDTA 20 mM
  % Survival at 2 hours: 22%
[2]; pH 5.0, Nisin 0, EDTA 3.0 mM
  % Survival 2 hr: 100%
[2]; pH 8.0, Nisin 0, EDTA 0.3 mM
  % Survival 2 hr: 100%
[2]; pH 8.0, Nisin 0, EDTA 1.0 mM
  % Survival 2 hr: 81%
[2]; pH 8.0, Nisin 0, EDTA 3.0 mM
  % Survival 2 hr: 100%
[2]; pH 8.0, Nisin 0, EDTA 10 mM
  % Survival 2 hr: 100%
[2]; pH 8.0, Nisin 0, EDTA 30 mM
  % Survival 2 hr: 100%
[3]; pH 8.0, Nisin 0, EDTA 1.0 mM
  % Survival after 2 hr: 84%
[4]; Table 9, chicken muscle, pH 8.0, Nisin 0, EDTA 1.0 mM, BSA 1.0%
  % Survival at 2 hours: 27%
[4]; Table 10, chicken muscle, Nisin 0, EDTA 10 mM, Methyl Paraben 0%, 50 mM Na acetate buffer, pH 5.0
  % Survival at 2 hours (Unadhered cells): 11.8%
[4]; chicken muscle, pH 5.0, Nisin 0, EDTA 10 mM
  % Survival at 2 hours (Unadhered cells): 6.4%
[4]; chicken muscle, pH 8.0, Nisin 0, EDTA 10 mM
  % Survival at 2 hours (Unadhered cells): 5.2%
[5]; incubation 3 min
  % Survival: 100%
[5]; incubation 60 min
  % Survival: 100%
[6]; E. coli, Nisin 0, 1.0 mM EDTA, 20 mM Tris pH 7.0
  % survival at 1 min.: 100%
[6]; Nisin 0, EDTA 20 mM
  Percentage E. coli Survival at 2 hours: 14.5%
[7]; Nisin 0, EDTA 20 mM, 20 mM Tris pH 8.0, 37° C
  Percentage S. typhimurium Survival at 3 hours: 2.5%
[7]; S. typhimurium, Nisin 0, EDTA 1.0 mM, BSA 1.0%, 20 mM Tris pH 8.0
  % Survival at 2 hours: 63%
[7]; S. typhimurium, pH 5.0 (50 mM sodium acetate), Nisin 0, EDTA 2.0 mM
  % Survival at 2 hours: 38.7%
[7]; S. typhimurium, pH 5.0, Nisin 0, EDTA 10 mM
  % Survival at 2 hours: 15.2%
[7]; S. typhimurium, pH 5.0, Nisin 0, EDTA 50 mM
  % Survival at 2 hours: 3.5%
[7]; S. typhimurium, pH 8.0 (20 mM Tris), Nisin 0, EDTA 2.0 mM
  % Survival at 2 hours: 8.7%
[7]; S. typhimurium, pH 8.0, Nisin 0, EDTA 10 mM
  % Survival at 2 hours: 14%
[7]; S. typhimurium, pH 8.0, Nisin 0, EDTA 50 mM
  % Survival at 2 hours: 11.4%
[7]; S. typhimurium, pH 8.0, Nisin 0, EDTA 100 mM
  % Survival at 2 hours: 45%
[7]; Table 3: Nisin 0, EDTA 20 mM, Tween20 0%, 20 mM Tris pH 8.0
  Percentage S. typhimurium Survival at 3 hours: 2.5%
[8]; pH 8.0, Nisin 0, EDTA 0.3 mM
  % Survival 2 hr: 4.6%
[8]; pH 8.0, Nisin 0, EDTA 1.0 mM
  % Survival 2 hr: 3.6%
[8]; pH 8.0, Nisin 0, EDTA 3.0 mM
  % Survival 2 hr: 8%
[8]; pH 8.0, Nisin 0, EDTA 10 mM
  % Survival 2 hr: 36%

## Nisin (ITSISLCTPGCKTGALMGCNMKTATCHCSIHVSK; not fully specified (residues 2, 5, 33, bridges); cysteine pairing not given here; UniProt P13068 24-57, looked up) [polypeptide bacteriocin with antimicrobial properties produced by strains of Streptococcus lactis; known food preservative]
[1]; Nisin 100 μg/ml, EDTA 0 mM
  % Survival at 2 hours: 50%
[1]; Nisin 300 μg/ml, EDTA 0 mM
  % Survival at 2 hours: 38%
[2]; pH 5.0, Nisin 3.0 μg/ml, EDTA 0 mM
  % Survival 2 hr: 0.6%
[2]; [12]
  % Survival 2 hr: 7.4%
[9]
  % Survival 2 hr: 0.56%
[3]; [12]
  % Survival after 2 hr: 0.71%
[4]; chicken muscle, pH 5.0, Nisin 300 μg/ml, EDTA 0 mM
  % Survival at 2 hours (Unadhered cells): 0.1%
[4]; chicken muscle, pH 8.0, Nisin 300 μg/ml, 1% Bovine serum albumin, EDTA 0 mM
  % Survival at 2 hours (Unadhered cells): 0.02%
[4]; chicken muscle, pH 8.0, Nisin 300 μg/ml, EDTA 0 mM
  % Survival at 2 hours (Unadhered cells): 7.5%
[5]; pH 8.0, Nisin 0.1 μg/ml, EDTA 0 mM
  % Survival after 2 hr: 4.3%
[6]; Nisin 30 μg/ml, EDTA 0 mM
  Percentage E. coli Survival at 2 hours: 27%
[6]; Nisin 100 μg/ml, EDTA 0 mM
  Percentage E. coli Survival at 2 hours: 25%
[6]; Nisin 300 μg/ml, EDTA 0 mM
  Percentage E. coli Survival at 2 hours: 8.5%
[10]
  % survival at 1 min.: 2.9%
[11]; Nisin 0.02 μg/ml
  % survival at 2h: 100%
[11]; Nisin 0.2 μg/ml
  % survival at 2h: 2.2%
[11]; nisin at concentrations up to 0.2 μg/ml, in milk
  bactericidal activity towards Streptococcus agalactiae: does not exhibit significant bactericidal activity
[7]; Nisin 50 µg/ml, EDTA 0 mM, 20 mM Tris pH 8.0, 37° C
  Percentage S. typhimurium Survival at 3 hours: 7.0%
[7]; Nisin 100 µg/ml, EDTA 0 mM, 20 mM Tris pH 8.0, 37° C
  Percentage S. typhimurium Survival at 3 hours: 1.6%
[7]; Nisin […], EDTA 0 mM, 20 mM Tris pH 8.0, 37° C
  Percentage S. typhimurium Survival at 3 hours: 51.3%
[7]; S. typhimurium, 100 μg/ml nisin in the absence of EDTA, 20 mM Tris pH 8.0
  survival: 1.6%
[7]; S. typhimurium, pH 5.0, Nisin 100 μg/ml, EDTA 0 mM
  % Survival at 2 hours: 0.6%
[7]; S. typhimurium, pH 8.0, Nisin 100 μg/ml, EDTA 0 mM
  % Survival at 2 hours: 4%
[7]; Table 2: Nisin 10 μg/ml, EDTA 0 mM, Triton X-100 0%, 20 mM Tris pH 8.0
  Percentage S. typhimurium Survival at 3 hours: 51.3%
[7]; Table 2: Nisin 50 μg/ml, EDTA 0 mM, Triton X-100 0%, 20 mM Tris pH 8.0
  Percentage S. typhimurium Survival at 3 hours: 7.0%
[7]; Table 2: Nisin 100 μg/ml, EDTA 0 mM, Triton X-100 0%, 20 mM Tris pH 8.0
  Percentage S. typhimurium Survival at 3 hours: 1.6%
[7]; Table 3: Nisin 10 μg/ml, EDTA 0 mM, Tween20 0%, 20 mM Tris pH 8.0
  Percentage S. typhimurium Survival at 3 hours: 51.3%
[7]; Table 3: Nisin 50 μg/ml, EDTA 0 mM, Tween20 0%, 20 mM Tris pH 8.0
  Percentage S. typhimurium Survival at 3 hours: 7.0%
[7]; Table 3: Nisin 100 μg/ml, EDTA 0 mM, Tween20 0%, 20 mM Tris pH 8.0
  Percentage S. typhimurium Survival at 3 hours: 1.6%
[7]; Table 8, S. typhimurium, Nisin 100 μg/ml, EDTA 0 mM, BSA 0%, Tris buffer
  % Survival at 2 hours: 1.6%
[8]; pH 8.0, Nisin 3 μg/ml, EDTA 0 mM
  % Survival 2 hr: 0.22%
